From patent US6706470B2, “Gene switches” (priority 1999, dated 2004)
Starred links: 1 amine or outer side, 2 acyl side, 3 side chain; linkers in the order of their positions; H or OH if unused. Positions of bridges follow the written chain, without caps; N, C: chain ends. Non-standard residues stand in square brackets, D forms with d. Residues, ends and D or L forms follow the SMILES beside them. Chains are numbered I, II in the order given. Actinocin(9to1) = Cc1c2oc3c(C)ccc(C(=O)[*:1])c3nc-2c(C(=O)[*:2])c(N)c1=O; NMeV = CN[C@H](C(=O)O)C(C)C; Sar = CNCC(=O)O

How the values were obtained:
[1] = system: DNA target AGCTTGGCG; assay: Dissociation of zinc finger phage from its DNA target by actinomycin D; format: binding
Procedure: (§1) This example describes phage that bound DNA targets with higher affinity in the absence of ligand. These phage were isolated using either: (a) the same method as in example 1.1, or (b) by selection in the absence of small molecule and phage elution from DNA using a small molecule.
(§2) Phage selection is over 4 rounds. Binding reactions contain 10 pmol biotinylated DNA site immobilised on 50 mg streptavidin coated beads (Dynal) and a 1 ml solution of zinc finger phage library (as described in 1.1) Reactions were incubated for 1 h on a rolling platform. After this time, beads were washed 20 times as described in 1.1 and finally phage were eluted from the beads over 5 minutes using a solution containg ligand (10 μM Distamycin A, or 1 μM Actinomycin D in PBS/Zn).
The actinomycin D sensitive clone was selected with the DNA target AGCTTGGCG and its helices were sequenced as: […]

[2] = system: DNA sequence AAAAAGGCG; assay: Phage ELISA: zinc finger phage binding to DNA with and without distamycin A; details: DNA concentration constant at 2 nM
[3] = system: DNA target AAAAAGCGGAAAAA; assay: Dissociation of zinc finger phage from its DNA target by distamycin A; format: binding
Procedure: as §1, §2
Some phage isolated by either of the above methods (a or b) bound DNA in the absence of ligand but could be displaced by concentrations of distamycin A at 10 μM and actinomycin D at 1 μM. The distamycin sensitive clone was selected using the DNA target AAAAAGCGGAAAAA (SEQ ID NO:48) and its helices were sequenced as: […]

[4] = system: CAT reporter gene downstream of the sequence AAAAAAGGCG; assay: Transient transfection CAT reporter assay; format: cell-based; details: in the presence of Distamycin A; zinc finger-HSV VP16 fusion cotransfected

Row | SMILES | effect of ligand on phage binding to specific DNA sequence ([1]; FIG. 6) | ligand concentration that displaces DNA-bound phage ([1]; actinomycin D sensitive clone) | ligand concentration at which phage retention is close to background level [2] | effect of ligand on phage binding to specific DNA sequence ([3]; FIG. 6) | ligand concentration that displaces DNA-bound phage ([3]; distamycin sensitive clone) | CAT gene expression [4]
1 | Cc1c2oc3c(C)ccc(C(=O)N[C@@H]4C(=O)N[C@H](C(C)C)C(=O)N5CCC[C@H]5C(=O)N(C)CC(=O)N(C)[C@@H](C(C)C)C(=O)O[C@@H]4C)c3nc-2c(C(=O)N[C@@H]2C(=O)N[C@H](C(C)C)C(=O)N3CCC[C@H]3C(=O)N(C)CC(=O)N(C)[C@@H](C(C)C)C(=O)O[C@@H]2C)c(N)c1=O [actinomycin D] (I: T[dV]P[Sar][NMeV] / II: T[dV]P[Sar][NMeV]; ester I:1-I:C, II:1-II:C; linker I:N-II:N via Actinocin(9to1)) | dissociated from the DNA | 1 µM |  |  |  | 
2 | Cn1cc(NC(=O)c2cc(NC(=O)c3cc(NC=O)cn3C)cn2C)cc1C(=O)NCCC(=N)N [distamycin A] |  |  | ≤ 10^−9 M | dissociated from the DNA | 10 µM | CAT expression is observed
